Reference: PubChem BioAssay (NCI)
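Each compound was tested at five concentrations against cells in 96-well plates for 48 hours. At the GI50, growth is halved. TGI is the concentration that stops growth completely.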

Experiments:
Test in all cases: growth of human tumour cells (NCI), 48 h
[1] = tested on: CCRF-CEM leukemia
[2] = tested on: COLO 205 colon
[3] = tested on: EKVX NSCLC
[4] = tested on: HCT-15 colon
[5] = tested on: HOP-62 NSCLC
[6] = tested on: IGROV1 ovarian
[7] = tested on: M14 melanoma
[8] = tested on: MALME-3M melanoma
[9] = tested on: OVCAR-4 ovarian
[10] = tested on: OVCAR-8 ovarian

SMILES: O=C(CCc1nnc2s/c(=C\c3ccccc3)c(=O)n12)Nc1cc(Cl)ccc1Cl
- TGI [1]: > 100 µM
- TGI [2]: > 100 µM
- TGI [3]: > 100 µM
- TGI [4]: > 100 µM
- TGI [5]: > 100 µM
- TGI [6]: > 100 µM
- TGI [7]: > 100 µM
- TGI [8]: > 100 µM
- TGI [9]: > 100 µM
- TGI [10]: > 100 µM

SMILES: c1cncc(CNc2ccccc2-c2nnc(Nc3ccc4c(c3)OCO4)o2)c1
- GI50 [1]: 0.0801 µM
- TGI [1]: > 100 µM
- GI50 [2]: 0.0411 µM
- TGI [2]: 0.551 µM
- GI50 [3]: 0.328 µM
- TGI [3]: > 100 µM
- GI50 [4]: 0.0578 µM
- TGI [4]: > 100 µM
- GI50 [5]: 0.085 µM
- TGI [5]: > 81 µM
- GI50 [6]: 0.171 µM
- TGI [6]: > 100 µM
- GI50 [7]: 0.056 µM
- TGI [7]: > 100 µM
- GI50 [8]: 0.0744 µM
- TGI [8]: > 100 µM
- GI50 [9]: 1 µM
- TGI [9]: > 100 µM
- GI50 [10]: 0.127 µM
- TGI [10]: > 100 µM

SMILES: O=C(N[C@H](c1ccc(Cl)c(Cl)c1)C1CNC1)c1ccc2cnccc2c1
- GI50 [1]: 2.74 µM
- TGI [1]: 13.6 µM
- GI50 [2]: 2.96 µM
- TGI [2]: 11.5 µM
- GI50 [3]: 3.15 µM
- TGI [3]: 16.4 µM
- GI50 [4]: 5.02 µM
- TGI [4]: 18.3 µM
- GI50 [5]: 4.34 µM
- TGI [5]: 16.7 µM
- GI50 [6]: 1.93 µM
- TGI [6]: 10.6 µM
- GI50 [7]: 4.18 µM
- TGI [7]: 16.7 µM
- GI50 [8]: 3.06 µM
- TGI [8]: 14.6 µM
- GI50 [9]: 5.68 µM
- TGI [9]: 19.4 µM
- GI50 [10]: 10.4 µM
- TGI [10]: 23 µM

SMILES: O=C(NCCCN1CCN(CCCNC(=O)c2cnc3ccccc3n2)CC1)c1cnc2ccccc2n1
- TGI [1]: > 100 µM
- TGI [2]: > 100 µM
- TGI [3]: > 100 µM
- TGI [4]: > 100 µM
- TGI [5]: > 100 µM
- TGI [6]: > 100 µM
- TGI [7]: > 100 µM
- TGI [8]: > 100 µM
- TGI [9]: > 100 µM
- TGI [10]: > 100 µM

SMILES: COc1cc2c(cc1OCCCCNC(=O)c1cc3ccccc3[nH]1)N=CC1CCCN1C2=O (stereo not given)
- GI50 [1]: 3.45 µM
- TGI [1]: > 100 µM
- GI50 [2]: 16 µM
- TGI [2]: > 100 µM
- GI50 [3]: 17.8 µM
- TGI [3]: 42.2 µM
- GI50 [4]: 16.4 µM
- TGI [4]: 58.2 µM
- GI50 [5]: 31.5 µM
- TGI [5]: > 100 µM
- GI50 [6]: 18.1 µM
- TGI [6]: > 100 µM
- GI50 [7]: 28.2 µM
- TGI [7]: > 100 µM
- GI50 [8]: 20 µM
- TGI [8]: 47.7 µM
- GI50 [9]: 28.2 µM
- TGI [9]: 94.4 µM
- GI50 [10]: 16.7 µM
- TGI [10]: 78.9 µM

SMILES: Nc1nc(N)c2cc(CNc3ccc(Cl)c(Cl)c3)ccc2n1
- GI50 [1]: 0.395 µM
- TGI [1]: 1.88 µM
- GI50 [2]: 1.11 µM
- TGI [2]: 2.33 µM
- GI50 [3]: 0.742 µM
- TGI [3]: 2.18 µM
- GI50 [4]: 0.365 µM
- TGI [4]: 1.72 µM
- GI50 [5]: 0.81 µM
- TGI [5]: 2.05 µM
- GI50 [6]: 0.579 µM
- TGI [6]: 1.92 µM
- GI50 [7]: 0.13 µM
- TGI [7]: 1.7 µM
- GI50 [8]: 1.21 µM
- TGI [8]: 2.77 µM
- GI50 [9]: 1.16 µM
- TGI [9]: 2.37 µM
- GI50 [10]: 0.513 µM
- TGI [10]: 1.75 µM

SMILES: CCc1cccc(C(C)CC)c1N=C(NC(=O)c1ccccc1C(=O)NC(=Nc1c(CC)cccc1C(C)CC)SC)SC (stereo not given)
- TGI [1]: > 100 µM
- TGI [2]: > 100 µM
- TGI [3]: > 100 µM
- TGI [4]: > 100 µM
- TGI [5]: > 100 µM
- TGI [6]: > 100 µM
- TGI [7]: 44.5 µM
- TGI [8]: > 100 µM
- TGI [9]: > 100 µM
- TGI [10]: > 100 µM

SMILES: CC(C)=CC/C=C(/C)[C@H]1CC[C@]2(C)[C@@H]1CC[C@@H]1[C@@]3(C)CCC(=O)NC(C)(C)[C@@H]3CC[C@]12C
- GI50 [1]: 12.4 µM
- TGI [1]: 47.9 µM
- GI50 [2]: 25.3 µM
- TGI [2]: 64.7 µM
- GI50 [3]: 27.7 µM
- TGI [3]: 84 µM
- GI50 [4]: 15.4 µM
- TGI [4]: 32.1 µM
- GI50 [5]: 20.8 µM
- TGI [5]: 44.7 µM
- GI50 [6]: 10.6 µM
- TGI [6]: 26.5 µM
- GI50 [7]: 17.8 µM
- TGI [7]: 39.3 µM
- GI50 [8]: 16 µM
- TGI [8]: 30.8 µM
- GI50 [9]: 21.9 µM
- TGI [9]: 75 µM
- GI50 [10]: 26 µM
- TGI [10]: 76.7 µM

SMILES: COc1ccc(/C=C/c2cc(OC)c(O[Si](C)(C)C(C)(C)C)c(OC)c2)cc1
- TGI [1]: > 100 µM
- TGI [2]: > 100 µM
- TGI [3]: > 100 µM
- TGI [4]: > 100 µM
- TGI [5]: > 100 µM
- TGI [6]: > 100 µM
- TGI [7]: > 100 µM
- TGI [8]: > 100 µM
- TGI [9]: > 100 µM
- TGI [10]: > 100 µM

SMILES: Cc1c2ccccc2c(C)c2c3c(ccc12)C(=O)C=CC3=O
- TGI [1]: 6.75 µM
- TGI [2]: 31.5 µM
- TGI [3]: > 85 µM
- TGI [4]: 42.4 µM
- TGI [5]: > 90.9 µM
- TGI [6]: 55.5 µM
- TGI [7]: > 81.2 µM
- TGI [8]: > 79.2 µM
- TGI [9]: 39.4 µM
- TGI [10]: 28.7 µM

SMILES: COc1ccc2c(c1)C(=O)c1c-2n(CCCN=[N+]=[N-])c(=O)c2ccccc12
- GI50 [1]: 10.1 µM
- TGI [1]: > 100 µM
- GI50 [2]: 34.6 µM
- TGI [2]: > 100 µM
- GI50 [3]: 63 µM
- TGI [3]: > 100 µM
- GI50 [4]: 58.4 µM
- TGI [4]: > 100 µM
- GI50 [5]: 34.2 µM
- TGI [5]: > 100 µM
- GI50 [6]: 32.8 µM
- TGI [6]: > 100 µM
- GI50 [7]: 75.1 µM
- TGI [7]: > 100 µM
- GI50 [8]: > 100 µM
- TGI [8]: > 100 µM
- GI50 [9]: 58.6 µM
- TGI [9]: > 100 µM
- GI50 [10]: 73 µM
- TGI [10]: > 100 µM

SMILES: Clc1ccc(-c2nc3c(-c4ccc(Cl)cc4)nc(-c4ccccc4)cn3c2-c2ccc(Cl)cc2)cc1
- GI50 [1]: > 50 µM
- TGI [1]: > 50 µM
- GI50 [2]: > 50 µM
- TGI [2]: > 50 µM
- GI50 [3]: > 50 µM
- TGI [3]: > 50 µM
- GI50 [4]: > 50 µM
- TGI [4]: > 50 µM
- GI50 [5]: 16 µM
- TGI [5]: > 50 µM
- GI50 [6]: 20.5 µM
- TGI [6]: > 50 µM
- GI50 [7]: > 50 µM
- TGI [7]: > 50 µM
- GI50 [8]: > 50 µM
- TGI [8]: > 50 µM
- GI50 [9]: > 50 µM
- TGI [9]: > 50 µM
- GI50 [10]: > 50 µM
- TGI [10]: > 50 µM
